From ChEMBL document CHEMBL3627672, “Structure-activity relationship study of syringolin A as a potential anticancer agent” (Bioorg Med Chem Lett, 2015)

Assays:
[1] = biological target: T1, Proteasome Macropain subunit MB1 (Homo sapiens, UniProt P28074); assay: Inhibition of proteasome beta-5 (unknown origin)
T1 sequence (P28074 whole entry): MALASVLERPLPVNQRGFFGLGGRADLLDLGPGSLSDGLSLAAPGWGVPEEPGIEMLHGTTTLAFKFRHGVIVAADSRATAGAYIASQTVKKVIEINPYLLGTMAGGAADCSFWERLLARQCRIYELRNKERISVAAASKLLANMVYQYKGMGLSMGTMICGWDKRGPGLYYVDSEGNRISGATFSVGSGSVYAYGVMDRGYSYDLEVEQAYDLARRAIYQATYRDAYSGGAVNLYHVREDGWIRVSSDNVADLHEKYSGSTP

[2] = Cytotoxicity against human MM1S cells; type: functional, cell-based; settings: MM1.S
[3] = Antiproliferative activity against human TOV21G cells after 72 hrs by oxyluciferin luminescence assay
HCT-116 = assay: Antiproliferative activity against human HCT116 cells after 72 hrs by oxyluciferin luminescence assay; settings: HCT-116, 72 h
A-431 = assay: Antiproliferative activity against human A431 cells after 72 hrs by oxyluciferin luminescence assay; settings: A-431, 72 h
[4] = Antiproliferative activity against human RPMI8266 cells after 72 hrs by oxyluciferin luminescence assay; settings: RPMI8266, 72 h
RKO = assay: Antiproliferative activity against human RKO cells after 72 hrs by oxyluciferin luminescence assay
CCRF-CEM = assay: Antiproliferative activity against human CCRF-CEM cells after 72 hrs by oxyluciferin luminescence assay
[5] = Cytotoxicity against human RPMI8266 cells

Row | Compound | Ki [1] | IC50 [2] | IC50 [3] | IC50 (HCT-116) | IC50 (A-431) | IC50 [4] | IC50 (RKO) | IC50 (CCRF-CEM) | IC50 [5]
1 | CC(C)[C@H](NC(=O)N[C@H](C(=O)N[C@H]1/C=C/CCNC(=O)/C=C/[C@H](C(C)C)NC1=O)C(C)C)C(=O)O | 843 nM | 8500 nM | – | – | – | – | – | – | –
2 | CCCCCCCCCC(=O)N1CCC[C@]1(Cc1ccccc1)C(=O)N[C@H]1/C=C/CCNC(=O)/C=C/[C@H](C(C)C)NC1=O | – | – | > 1000 nM | > 1000 nM | > 1000 nM | > 1000 nM | > 1000 nM | > 1000 nM | –
3 | CCCCCCCCCC(=O)N[C@H](CC(=O)N[C@H]1/C=C/CCNC(=O)/C=C/[C@H](C(C)C)NC1=O)Cc1ccccc1 | – | – | 212 nM | 434 nM | 191 nM | 255 nM | 244 nM | 221 nM | –
4 | CCCCCCCCCC(=O)N[C@@H](Cc1ccccc1)C(=O)N[C@H]1/C=C/CCNC(=O)/C=C/[C@H](C(C)C)NC1=O | – | – | 12.3 nM | 12.6 nM | 14.1 nM | 9 nM | 11.8 nM | 4.3 nM | 2.2 nM
5 | CC(C)C[C@H](NC(=O)[C@H](Cc1ccccc1)NC(=O)c1cnccn1)B(O)O [BORTEZOMIB] | – | – | 16.7 nM | 27 nM | 28.2 nM | 14.4 nM | 20.8 nM | 11 nM | –
6 | CC(C)C[C@H](NC(=O)[C@H](CCc1ccccc1)NC(=O)CN1CCOCC1)C(=O)N[C@@H](Cc1ccccc1)C(=O)N[C@@H](CC(C)C)C(=O)[C@@]1(C)CO1 [CARFILZOMIB] | – | – | 23.8 nM | 19.3 nM | 23.8 nM | 13.9 nM | 27.1 nM | 6.1 nM | –
